Data on seven compounds can be found in patent US6900193B1, “Structural modification of 19-norprogesterone I: 17-α-substituted-11-β-substituted-4-aryl and 21-substituted 19-norpregnadienedione as new antiprogestational agents” (The United States of America as represented by the …, priority 1996, dated 2005).

Read-outs that look alike come from different tables or passages of the source.

Series [1] has as its system implantation. The conditions noted are these: guinea pig; cited from earlier work.
Series [2] concerns estrogen-insensitive T47Dco human breast cancer cells. Conditions: Horwitz 1985; cited from earlier work.
Series [3] deals with early stages of pregnancy. The conditions noted are these: administered during the early stages of pregnancy; cited from earlier work.
In series [4] the test system is implantation. The conditions noted are these: man; cited from earlier work.
Series [5] deals with ovulation. Conditions: Baulieu, et al.; cited from earlier work.
In series [6] the test system is ovulation. The conditions noted are these: Dao, et al.; cited from earlier work.
Series [7] has as its system implantation. Conditions: rat; cited from earlier work.
The test system of another series is Cushing's syndrome. The conditions noted are these: cited from earlier work.
The target in series [8] is T1, human isoform A progesterone receptor (Homo sapiens, UniProt P06401).
T1 sequence (P06401 1-769 isoform P06401-2): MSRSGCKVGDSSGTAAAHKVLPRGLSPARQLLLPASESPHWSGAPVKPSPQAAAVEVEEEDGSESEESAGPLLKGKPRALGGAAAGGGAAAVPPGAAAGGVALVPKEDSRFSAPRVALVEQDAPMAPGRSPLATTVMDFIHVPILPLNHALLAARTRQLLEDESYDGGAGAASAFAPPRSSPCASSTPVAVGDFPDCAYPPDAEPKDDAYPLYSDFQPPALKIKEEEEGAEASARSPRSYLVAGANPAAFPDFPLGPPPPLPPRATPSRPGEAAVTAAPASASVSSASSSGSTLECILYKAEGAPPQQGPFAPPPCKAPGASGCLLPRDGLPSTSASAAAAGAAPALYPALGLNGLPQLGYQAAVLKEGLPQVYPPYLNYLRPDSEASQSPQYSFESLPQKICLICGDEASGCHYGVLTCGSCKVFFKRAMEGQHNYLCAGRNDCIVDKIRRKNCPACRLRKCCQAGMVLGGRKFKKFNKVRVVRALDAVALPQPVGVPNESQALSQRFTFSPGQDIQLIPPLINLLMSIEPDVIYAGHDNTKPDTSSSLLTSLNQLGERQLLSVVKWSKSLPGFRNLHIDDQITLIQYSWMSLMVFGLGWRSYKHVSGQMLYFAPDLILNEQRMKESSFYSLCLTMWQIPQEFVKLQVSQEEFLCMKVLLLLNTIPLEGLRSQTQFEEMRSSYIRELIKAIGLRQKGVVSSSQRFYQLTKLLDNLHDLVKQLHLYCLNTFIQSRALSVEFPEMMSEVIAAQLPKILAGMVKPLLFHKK
In words: Relative binding affinity, human isoform A progesterone receptor. Conditions: for BINDING AFFINITY Progester, figure in ( ): relative binding affinity of the human isoform A progesterone receptor: Table 2, figure in parentheses.

For series [9], the system named is ovulation. The experiment in a line: Antiovulatory test. The format is in vivo, rat. The conditions noted are these: for Antiovulatory MED100: oral, rat, single dose at noon on day of proestrus. As for the experimental part:
Antiovulatory Test […] female rats of the Sprague-Dawley strain weighing 200 to 250 g were maintained under standard laboratory conditions, 14 hours of light and 10 hours of darkness each day. Vaginal washings were obtained daily and evaluated microscopically to establish the estrous cycle of each animal. […] Each dose group consisted of eight rats and one group served as the vehicle control. Animals were dosed at noon on the day of proestrus and sacrificed 24 hours later when ova can usually be visualized in the distended ampulla of the oviduct using a dissecting microscope. The oviducts were excised, an incision made in the distended ampulla and the ova teased out in a drop of water on a microscope slide so that the number shed could be counted. Historically, control animals shed between 12 and 14 ova during each estrous cycle.

The nature of series [10]: Lability to base under reverse-phase HPLC conditions. In kind it is physicochemical. The conditions noted are these: MeOH/H2O/Et3N reverse-phase conditions; converts to compound 8, also at pH 7.0. The procedure: Under nitrogen, a mixture of the crude ethoxyethylidenedioxy compound (18, 0.56 g., 1.11 mmol), 0.2 M NaOAc (3 mL, […]) in methanol (30 mL) was heated to reflux. Monitoring by TLC (5% acetone/CH2Cl2) indicated a complete reaction in 3.5 hours. The methanol was removed in vacuo under a stream of nitrogen, the residue diluted with water (˜50 mL) and extracted with CH2Cl2 (3×). The organic fractions were combined, washed with H2O (2×) and brine (1×), dried over Na2SO4, filtered and concentrated in vacuo to give 0.56 g of the crude 21-ol, 17α-acetate (41) as a foam. Purification of this material via flash chromatography (7.5% acetone/CH2Cl2) followed by trituration with ether/pentane gave 0.32 g of the target compound, 21-OH, 17α-acetate as an off-white solid in […]; m.p.=205-210° C. The NMR indicated this product contains 5.3% of the 17α-OH, 21-OAc (8) isomer as a contaminant. […] This transesterification occurs at an appreciate rate even when the solvent system is buffered at pH 7.0 with phosphoric acid. The purity of the acetate mixture (8 and 41) was ascertained at >99% by normal phase HPLC analysis (Waters Associates μPorasil Silica using CH3CN/CH2Cl2 (40:60) with a flow rate of 2 mL/min at λ=302 nm). […] The presence of the 17α-OH, 21-OAc isomer (8) to the extent of 5.3% could be detected by the appearance of two doublets, one at 4.88 and the other at 5.11, both with J=18.3 Hz.

Series [11] relates to follicular development, ovulation, endometrial maturation. In words: Single oral dose in human subjects (unpublished data). In kind it is in vivo.
For series [12] the following is noted: in vivo.

`CC#C[C@]1(O)CC[C@H]2[C@@H]3CCC4=CC(=O)CCC4=C3[C@@H](c3ccc(N(C)C)cc3)C[C@@]21C` [mifepristone]: the prevention of implantation result in the series on implantation [1], in the series on implantation [4] and in the series with implantation [7] was “prevent implantation” each time. The “growth inhibition of T47Dco human breast cancer cells” value in series [2] is “growth-inhibitory properties”. The antiprogestational/contragestative effect result in series [3] is given as “effective antiprogestational/contragestative agent”. The “effect on ovulation in human subjects” value in the series on ovulation [5] was “affect ovulation”. In addition, the “inhibition of ovulation in the rat” value with ovulation [6] is listed as “inhibit ovulation”. In addition, the “treatment of Cushing's syndrome” value with Cushing's syndrome (Nieman, et al. 1985) is on record as “successfully used”. Also, the antiglucocorticoid activity result in the series on Cushing's syndrome (in vivo) is “very significant antiglucocorticoid activity”.

Regarding `COCC(=O)C1(OC(C)=O)CCC2C3CCC4=CC(=O)CCC4=C3C(c3ccc(N4CCCCC4)cc3)CC21C` (stereo not drawn) [Compound 123a, 17α-Acetoxy-1113-[4-(N-piperidino)phenyl]-21-methoxy-19-norpregna-4,9-diene-3,20-dione], the “BINDING AFFINITY Progester, figure in ( ): relative binding affinity of the human isoform A progesterone receptor” value in series [8] was found to be 140.

Turning to `CC(=O)O[C@]1(C(C)=O)CC[C@H]2[C@@H]3CCC4=CC(=O)CCC4=C3[C@@H](c3ccc(N4CCCCC4)cc3)C[C@@]21C` [Compound 71, 17α-Acetoxy-11β-[4(N-Piperidino)phenyl]-19-norpregna-4,9-diene-3,20-dione], the “Antiovulatory MED100” value in the series with ovulation [9] was greater than 16 mg. For the same compound, the “antiovulatory activity relative to the standard” value in the series on ovulation [9] (percent of the activity of 69B) was “about 5%”. For the same compound, in the series with ovulation [9] (versus 69B), the “dose level at which not fully active, antiovulatory” value is listed as > 16 times the MED100 for the standard. Also, in series [8], the “BINDING AFFINITY Progester, figure in ( ): relative binding affinity of the human isoform A progesterone receptor” value was determined as 203.

Consider `COCC(=O)[C@@]1(OC)CC[C@H]2[C@@H]3CCC4=CC(=O)CCC4=C3[C@@H](c3ccc(N(C)C)cc3)C[C@@]21C` [Compound 113a, 17α,21-Dimethoxy-11β-[4-(N,N-dimethylamino)phenyl]-19-norpregna-4,9-diene-3,20-dione], for which, in [8], the “binding affinity for the human progesterone receptor (isoform A), in words” value is on record as “high binding affinity” and the “BINDING AFFINITY Progester, figure in ( ): relative binding affinity of the human isoform A progesterone receptor” value is 237.

Turning to `CC(=O)O[C@]1(C(=O)CO)CCC2C3CCC4=CC(=O)CCC4=C3C(c3ccc(N(C)C)cc3)C[C@@]21C` (stereo partly drawn) [Compound 41, 17α-acetoxy-21-hydroxy-11β-[4-(N,N-dimethylamino)phenyl]-19-norpregna-4,9-diene-3,20-dione], the stability to base result in [10] is “extremely labile to base”.

Take `CC(=O)O[C@]1(C(C)=O)CC[C@H]2[C@@H]3CCC4=CC(=O)CCC4=C3[C@@H](c3ccc(N(C)C)cc3)C[C@@]21C` [Compound 69B, 17α-acetoxy-11β-(4-N,N-dimethylaminophenyl)-19-norpregna-4,9-diene-3,20-dione, reference compound]: the “Antiovulatory MED100” value in the series with ovulation [9] was 1 mg. In [11], the “effect in human subjects following a single oral dose” value was “affect both follicular development and ovulation as well as endometrial maturation”. In addition, the “BINDING AFFINITY Progester, figure in ( ): relative binding affinity of the human isoform A progesterone receptor” value in [8] stood at 234. Also, the “blood levels following oral administration” value in series [12] is listed as “Higher blood levels”. Also, the “inhibition of ovulation in the rat” value in the series on ovulation [6] is “inhibit ovulation”.

In the case of `CC(=O)OCC(=O)[C@@]1(OC(C)=O)CC[C@H]2[C@@H]3CCC4=CC(=O)CCC4=C3[C@@H](c3ccc(C(C)=O)cc3)C[C@@]21C` [Compound 106b, 17α,21-Diacetoxy-11β-(4-acetylphenyl)19-norpregna-4,9-diene-3,20-dione], the “BINDING AFFINITY Progester, figure in ( ): relative binding affinity of the human isoform A progesterone receptor” value in series [8] stood at 172.
